Data: PubChem BioAssay (NCI)
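Tested at 5 concentrations; 48 h exposure; 96-well plates; endpoints linearly interpolated, else capped at highest concentration. GI50: concentration for 50% inhibition of growth. TGI is the concentration that stops growth completely.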

What was measured:
Experiment in all cases: growth of human tumour cells (NCI), 48 h
[1] = test system: A498 renal
[2] = test system: ACHN renal
[3] = test system: HOP-92 NSCLC
[4] = test system: HT29 colon
[5] = test system: OVCAR-5 ovarian
[6] = test system: PC-3 prostate
[7] = test system: SF-295 CNS
[8] = test system: SK-MEL-5 melanoma
[9] = test system: U251 CNS

Row | Structure (SMILES) | TGI [1] | TGI [2] | TGI [3] | TGI [4] | TGI [5] | TGI [6] | TGI [7] | TGI [8] | TGI [9] | GI50 [1] | GI50 [2] | GI50 [5] | GI50 [6] | GI50 [7]
1 | CCNC(=O)NNc1ncnc2c1c(-c1ccc(Cl)cc1)cn2-c1ccc(C)cc1 | 30.6 µM | 41.9 µM | 34 µM | 34 µM | 33.5 µM | 38.6 µM | 30.5 µM | 28 µM | 31.3 µM |  |  |  |  | 
2 | CCCCCCCCCC(O)CC(=O)c1c(O)cccc1O (configuration not stated) | 88.5 µM | 53.7 µM | 64.8 µM | 43 µM | 35.7 µM | 36.4 µM | 39.1 µM | 38 µM | > 100 µM |  |  |  |  | 
3 | C=CCOC(=O)c1c(C)n([O-])c2cc(Cl)c(Cl)cc2[n+]1=O | 62.6 µM | 50.9 µM | 53.1 µM | 36.8 µM | 75.7 µM | > 100 µM | 86.9 µM | 36.8 µM | > 100 µM |  |  |  |  | 
4 | C=CC(C)(C)C1(CC(OC)OC)C(=O)N(C)c2ccccc21 (configuration not stated) | > 25 µM | > 25 µM | > 25 µM | > 25 µM | > 25 µM | > 25 µM | > 25 µM | > 25 µM | > 25 µM |  |  |  |  | 
5 | Fc1ccc2[nH]cc(-c3nc(-c4c[nH]c5ccncc45)cs3)c2c1 | 3.43 µM | 2.97 µM |  |  | 3.38 µM | 2.99 µM | 3.1 µM |  |  | 1.98 µM | 1.61 µM | 1.93 µM | 1.47 µM | 1.68 µM
6 | O=C(OCC1CCCN2CCCCC12)c1cccnc1 (configuration not stated) | > 100 µM | > 100 µM | > 100 µM | > 100 µM |  | > 100 µM | > 100 µM | > 100 µM | > 100 µM |  |  |  |  | 
7 | c1ccc2[nH]c3c(N=NC4=NCCN4)c4ccccc4c-3nc2c1 |  | > 100 µM | 20.4 µM | 2.7 µM |  |  | 12.2 µM | 15.9 µM | 19.7 µM |  |  |  |  | 
8 | CC(=O)OC12CC(C(F)(F)F)(C(F)(F)F)OC1(OC(C)=O)CC(C(F)(F)F)(C(F)(F)F)O2 (configuration not stated) | 8.57 µM | 2.38 µM |  | > 100 µM | 90.6 µM | > 100 µM | > 100 µM | 5.81 µM | 19.2 µM |  |  |  |  | 
9 | O=C1C(C(c2ccc([N+](=O)[O-])cc2)N2CCOCC2)=C(O)C(c2ccccc2)N1c1ccccc1 (configuration not stated) | > 10 µM | > 10 µM |  | > 10 µM | > 10 µM | > 10 µM | > 10 µM | > 10 µM | > 10 µM |  |  |  |  | 
10 | CCCCOc1c(C(=O)O)cc(Br)cc1C(=O)O | > 100 µM | > 100 µM | > 100 µM |  | > 100 µM | > 100 µM | > 100 µM | > 100 µM | > 100 µM |  |  |  |  | 
11 | CCn1c(-c2ccc(OC)cc2)nc2c1C(=O)c1ccccc1C2=O |  | > 100 µM | > 100 µM | > 100 µM | > 100 µM | > 100 µM | > 100 µM | > 100 µM | > 100 µM |  |  |  |  | 
12 | N/C(=N\S(=O)(=O)c1ccc(-c2ccccn2)s1)Nc1ccc(Cl)cc1 | 25.8 µM | 33.6 µM | 28.9 µM | 35.2 µM | 40.2 µM | 27.3 µM | 40.3 µM | 30.6 µM | 28.6 µM |  |  |  |  | 
13 | COc1ccc(C(=O)c2c(-c3ccccc3NC(=O)C(F)(F)F)[nH]c3ccccc23)cc1 | 4.7 µM | 11.6 µM | 27.6 µM | 16.5 µM | 25.5 µM | 17.3 µM | 25.5 µM | 22 µM | 7.17 µM |  |  |  |  | 
14 | COC(=O)[C@@H]1[C@H](O)CCC2=C(CC(=O)c3ccoc3)[C@H](C)CC[C@]21C | > 50 µM | > 50 µM | > 50 µM | > 50 µM | > 50 µM | > 50 µM | > 50 µM | > 50 µM | > 50 µM |  |  |  |  | 
15 | O=C(NNS(=O)(=O)c1ccc(Br)cc1)c1ccc(Cl)cc1NC(=O)C12CC3CC(CC(C3)C1)C2 | 29 µM | 29.7 µM | 27.3 µM | 27.2 µM | 34.3 µM | 38.6 µM | 29.3 µM | 23.2 µM | 22.7 µM |  |  |  |  | 
16 | CC(C(=O)NCCNC(=O)CCC(=O)N(C)O)C(=O)NCCNC(=O)CCC(=O)N(C)O | > 100 µM | > 100 µM | > 100 µM | > 100 µM | > 100 µM | > 100 µM | > 100 µM | > 100 µM | > 100 µM |  |  |  |  | 
17 | CC(C)(C)c1ccc(O)c(C(c2ccc([N+](=O)[O-])cc2)c2cc(C(C)(C)C)ccc2O)c1 |  | 3.3 µM | 3.7 µM | 4.47 µM | 3.25 µM | 3.33 µM | 3.64 µM |  | 4.81 µM |  |  |  |  | 
18 | Nc1nc(Nc2ccc(Cl)cc2)sc1C(=O)c1c[nH]c2ccccc12 | 23.3 µM | 36.2 µM | 36.2 µM | 20 µM | 46.2 µM | 27.9 µM |  | 24.3 µM | 25.1 µM |  |  |  |  | 
